Twelve compounds from ChEMBL document CHEMBL1201862, “PubChem BioAssay data set” (2004) can be followed below.

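Five concentrations, 48 hours, 96-well plates. GI50 = concentration required for 50% inhibition of growth.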 Active and inactive are the calls of the source. Cut-off read from the data, not from the text of the source: active = GI50 up to about 1.1 µM and inactive = higher. Where only a bound is given, the exact number is not on record here.

Among the test systems are A549; BT-549; CAKI-1; CCRF-CEM; HCT-116; HL-60; HT-29; NCI-H460; OVCAR-3; OVCAR-4; SF-539; SK-MEL-2; SN12C; SW-620; UACC-257; HCC 2998; HOP-62; K562; Malme-3M.
Common to all, as to assay: inhibition of tumour cell growth, NCI panel, 48 h

For `C[n+]1c(-c2ccc(/C=N\N3CCN(/N=C/c4ccc(-c5cn6ccccc6[n+]5C)cc4)CC3)cc2)cn2ccccc21`, the GI50 in the experiment on A549 was > 100 µM (inactive); in the experiment with BT-549 it was 35 µM (inactive); in the experiment with CAKI-1, 20.5 µM (inactive); with CCRF-CEM, 34.2 µM (inactive); in the experiment with HCT-116, 70.8 µM (inactive); in the experiment on HL-60, 21.2 µM (inactive). Moreover, the GI50 in the experiment with HT-29 was > 100 µM (inactive); with NCI-H460, 58.6 µM (inactive); in the experiment on OVCAR-3, > 100 µM (inactive); in the experiment with OVCAR-4 it was 74.6 µM (inactive); in the experiment with SF-539 it was 48.4 µM (inactive); in the experiment on SK-MEL-2, 56.8 µM (inactive). Besides, the GI50 is 54.5 µM (inactive) in the experiment with SN12C, 76.6 µM (inactive) in the experiment with SW-620 and 5.24 µM (inactive) in the experiment on UACC-257.
Regarding `C=C1CC(c2ccc(OCCCN3C(=O)c4ccccc4C3=O)c(OC)c2)OC1=O` (stereo not given), the GI50 with A549 is 13.6 µM (inactive); with CAKI-1, 3.66 µM (inactive); with CCRF-CEM, 1.06 µM (active); in the experiment on HCC 2998 it was 12 µM (inactive); in the experiment with HCT-116, 1.6 µM (inactive); in the experiment with HL-60, 1.25 µM (inactive). The GI50 in the experiment on HOP-62 was 15.6 µM (inactive); with HT-29, 2.58 µM (inactive); in the experiment on K562, 1.07 µM (active); in the experiment on Malme-3M, 3.27 µM (inactive); in the experiment on NCI-H460 it was 2.62 µM (inactive); in the experiment with OVCAR-3, 2.21 µM (inactive). Also, the GI50 was 1.06 µM (active) in the experiment with OVCAR-4; 0.303 µM (active) in the experiment on SF-539; 4.7 µM (inactive) in the experiment on SK-MEL-2; 6.82 µM (inactive) in the experiment on SN12C; 1.56 µM (inactive) with SW-620; 3.63 µM (inactive) in the experiment on UACC-257.
Take `Cc1cc(-c2cc(C(C)(C)C)c(O)c(C(C)(C)C)c2)c(C)cc1-c1cc(C(C)(C)C)c(O)c(C(C)(C)C)c1`: the GI50 in the experiment on A549, in the experiment on BT-549, in the experiment on CAKI-1, in the experiment on CCRF-CEM, in the experiment with HCT-116 and in the experiment with HL-60 was > 100 µM (inactive) in each case. For the same compound, the GI50 with HOP-62, in the experiment on HT-29, in the experiment on K562, with Malme-3M, in the experiment on OVCAR-3 and with OVCAR-4 was > 100 µM (inactive) each time. The GI50 with SF-539, with SK-MEL-2, with SN12C, with SW-620 and in the experiment on UACC-257 was > 100 µM (inactive) throughout.
As for `COc1cccc2c1OC(c1cccc3ccccc13)C([N+](=O)[O-])=C2` (stereo not given), the GI50 in the experiment on A549 was 1.95 µM (inactive); in the experiment on BT-549 it was 1.17 µM (inactive); in the experiment with CAKI-1, 2.33 µM (inactive); in the experiment with CCRF-CEM it was 0.312 µM (active); with HCT-116, 1.21 µM (inactive); in the experiment with HL-60 it was 0.612 µM (active). Moreover, the GI50 is 2.1 µM (inactive) with HOP-62; 1.92 µM (inactive) in the experiment with HT-29; 0.685 µM (active) in the experiment on K562; 1.75 µM (inactive) with Malme-3M; 1.9 µM (inactive) in the experiment with NCI-H460; 1.34 µM (inactive) with OVCAR-3. Further, the values for the GI50 in the experiment with OVCAR-4, with SN12C and in the experiment with UACC-257 were 3.32 µM (inactive), 2 µM (inactive) and 1.54 µM (inactive), respectively.
For `N#Cc1c(-c2ccccc2)c(C#N)c(=S)n(C2OC(CO)C(O)C(O)C2O)c1O` (stereo not given), the GI50 in the experiment with A549, in the experiment with BT-549, in the experiment on CAKI-1, in the experiment on CCRF-CEM, in the experiment with HL-60 and in the experiment on HOP-62 was > 100 µM (inactive) throughout. The GI50 in the experiment with HT-29, in the experiment with K562, in the experiment with Malme-3M, in the experiment with NCI-H460, in the experiment on OVCAR-3 and in the experiment with SF-539 was > 100 µM (inactive) each time. The GI50 with SK-MEL-2, in the experiment on SN12C, in the experiment with SW-620 and in the experiment with UACC-257 was > 100 µM (inactive) each time.
Regarding `CC1(C)C2CC(c3ccncc3)ON2C(C)(C)N1O` (stereo not given), the GI50 with A549, with CAKI-1, with CCRF-CEM, with HCC 2998, in the experiment with HCT-116 and in the experiment on HL-60 was > 100 µM (inactive) in each case. In addition, the GI50 in the experiment on HOP-62, in the experiment with HT-29, in the experiment on K562, in the experiment on Malme-3M, in the experiment with NCI-H460 and with OVCAR-3 was > 100 µM (inactive) each time. Further, the GI50 in the experiment with OVCAR-4, in the experiment on SF-539, in the experiment on SK-MEL-2, in the experiment with SN12C, with SW-620 and in the experiment on UACC-257 was > 100 µM (inactive) each time.
Consider `Cc1ccc(Sc2ccccc2C23OC(C)(C4C(=O)N(c5ccccc5)C(=O)C42)N(C)C3=O)cc1` (stereo not given), for which the GI50 in the experiment with A549, in the experiment on BT-549, with CAKI-1, in the experiment with CCRF-CEM, in the experiment with HCT-116 and with HL-60 was > 100 µM (inactive) throughout. For the same compound, the GI50 in the experiment on HT-29 was > 100 µM (inactive); in the experiment with K562, > 100 µM (inactive); with Malme-3M it was 79.6 µM (inactive); with NCI-H460 it was > 100 µM (inactive); in the experiment on OVCAR-3, > 100 µM (inactive); with OVCAR-4 it was 84.5 µM (inactive). In addition, the GI50 was > 100 µM (inactive) with SF-539; > 100 µM (inactive) in the experiment with SK-MEL-2; 90.2 µM (inactive) in the experiment on SN12C; > 100 µM (inactive) in the experiment on SW-620; > 100 µM (inactive) with UACC-257.
Consider `CCOC(=O)c1c(N2CCCC2)nsc1Nc1ccccc1`, for which the GI50 with A549, in the experiment on CAKI-1, with CCRF-CEM, in the experiment on HCC 2998, in the experiment on HCT-116 and in the experiment on HL-60 was > 100 µM (inactive) throughout. In addition, the GI50 in the experiment on HT-29, in the experiment with K562, in the experiment on Malme-3M, with NCI-H460, with OVCAR-4 and with SF-539 was > 100 µM (inactive) each time. Moreover, the GI50 in the experiment on SK-MEL-2, in the experiment on SN12C, in the experiment with SW-620 and in the experiment with UACC-257 was > 100 µM (inactive) throughout.
For `BrC(=C(c1ccc(OC2CCCCO2)cc1)c1ccc(OC2CCCCO2)cc1)c1ccccc1` (stereo not given), the GI50 with A549, in the experiment on CAKI-1, in the experiment on CCRF-CEM, in the experiment on HCT-116, in the experiment on HL-60 and with HOP-62 was > 100 µM (inactive) throughout. Also, the GI50 in the experiment on HT-29, with K562, in the experiment on Malme-3M, in the experiment on NCI-H460, in the experiment on OVCAR-3 and in the experiment on OVCAR-4 was > 100 µM (inactive) in each case. In addition, the GI50 with SF-539, in the experiment with SN12C, with SW-620 and in the experiment with UACC-257 was > 100 µM (inactive) each time.
Consider `N=C(N)N1CCC(N2CCOCC2)CC1`, for which the GI50 with A549, in the experiment with CCRF-CEM, with HCC 2998, in the experiment on HCT-116, in the experiment with HL-60 and in the experiment on HOP-62 was > 100 µM (inactive) in each case. Moreover, the GI50 in the experiment on HT-29, in the experiment with K562, with Malme-3M, with NCI-H460, in the experiment with OVCAR-4 and in the experiment on SF-539 was > 100 µM (inactive) throughout. Also, the GI50 in the experiment on SN12C, in the experiment with SW-620 and in the experiment on UACC-257 was > 100 µM (inactive) in each case.
In the case of `CC(C)(C)OC(=O)[C@H]1CCC(=S)N1Cc1ccccc1`, the GI50 with A549, in the experiment with CAKI-1, in the experiment on CCRF-CEM, in the experiment with HCC 2998, in the experiment with HCT-116 and with HL-60 was > 100 µM (inactive) in each case. In addition, the GI50 in the experiment with Malme-3M, in the experiment with NCI-H460, in the experiment on OVCAR-3, in the experiment on OVCAR-4, in the experiment with SF-539 and in the experiment on SK-MEL-2 was > 100 µM (inactive) each time. Also, the GI50 in the experiment with SN12C, with SW-620 and with UACC-257 was > 100 µM (inactive) in each case.
For `[O-][n+]1onc2c1CCC(=N\O)/C2=N/Nc1ccccc1`, the GI50 is > 100 µM (inactive) in the experiment with A549; > 100 µM (inactive) in the experiment on CAKI-1; > 100 µM (inactive) in the experiment with CCRF-CEM; > 100 µM (inactive) with HCT-116; 49.4 µM (inactive) with HL-60; > 100 µM (inactive) in the experiment with HOP-62. Further, the GI50 in the experiment with HT-29, in the experiment on K562, in the experiment on Malme-3M, with NCI-H460, in the experiment with OVCAR-3 and with OVCAR-4 was > 100 µM (inactive) in each case. Further, the GI50 with SF-539, in the experiment with SK-MEL-2, in the experiment on SN12C, in the experiment on SW-620 and in the experiment with UACC-257 was > 100 µM (inactive) each time.
